Results: the supplement of paper PMC11208160

Test: recombinant barcode read abundance after kanamycin selection (control-corrected) (log10(CPM+1)); higher = more efficient recombination; sequences stand for … in AGTGCAGAGAAAATCGGCCAGTTTTCTCTGCCTGCAGTCCGCATGCCGT…AGATTTATGCAGCGGACTGCCTTTCTCCCAAAGTGATAAACCGGACAGTATCATGGACCGGTTTTCCCGGTAATCCGTATTTGCAAGGTTGGTTTCACT; site = the 11-nt target
How it was run: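 Pooled E. coli screen pairing targets with IS621 bridge RNA target-binding loops. Each oligo (promoter, target, barcode, J23119-driven first 104 bridge RNA bases) was Gibson-cloned into a vector with the remaining 73 bp and T7-inducible recombinase, then co-electroporated with a donor plasmid. Two replicates each were plated on chloramphenicol/ampicillin LB agar (control) or chloramphenicol/ampicillin/kanamycin with 0.1 mM IPTG. Recombination efficiency is recombinant-junction barcode counts as CPM, averaged, control-corrected, reported as log10(CPM+1).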
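Also: IS621 recombinase and bridge RNA in Escherichia coli cells.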

Sequence | recombinant barcode read abundance (log10)
CTGGGTTCTTGGGTTCTAACCTGTTGCCT (site CCGGGTTCTAG) | 0.138
CTGGGTTCTTGGGTTCTAACCTGTTGCCT (site CGGGGTTCTAG) | 0.312
CTGGGTTCTTGGGTTCTAACCTGTTGCCT (site CTGGGTTCTAG) | 0.17
CTGGTCACTTGGGTTCTAACCTGTTGCGG (site CTAGACACTCC) | 0.11
CTGGTCACTTGGGTTCTAACCTGTTGCGG (site CTGGTCACTCC) | 2.74
CTGGTCCCTTGGGTTCTAACCTGTTGCGG (site CTGATCCCTCC) | 0.983
CTGGTCCCTTGGGTTCTAACCTGTTGCGG (site CTGCTCCCTCC) | 0.0151
CTGGTCCCTTGGGTTCTAACCTGTTGCGG (site CTGGTCCCTCC) | 2.72
CTGGTCCCTTGGGTTCTAACCTGTTGCGG (site CTGTTCCCTCC) | 0.151
CTGTCTCCTTGGGTTCTAACCTGTTGCGT (site AGAAGCACTTG) | 0.11
CTGTCTCCTTGGGTTCTAACCTGTTGCGT (site CTGTCTCCTAC) | 0.833
CTGTGGACTTGGGTTCTAACCTGTTGCAG (site CTCTGGACTGT) | 0
CTGTGGACTTGGGTTCTAACCTGTTGCAG (site CTGTGGACTCT) | 1.13
CTGTTATCTTGGGTTCTAACCTGTTGCCT (site CTATTATCTAG) | 0.127
CTGTTATCTTGGGTTCTAACCTGTTGCCT (site CTGTTATCTAG) | 0.237
CTTAAATCTTGGGTTCTAACCTGTTGCCT (site CTTAAATCTAG) | 0.0558
CTTAAATCTTGGGTTCTAACCTGTTGCCT (site CTTCAATCTAG) | 0.0867
CTTAAATCTTGGGTTCTAACCTGTTGCCT (site CTTGAATCTAG) | 0.24
CTTAAATCTTGGGTTCTAACCTGTTGCCT (site CTTTAATCTAG) | 0.165
CTTACCGCTTGGGTTCTAACCTGTTGCCT (site CTTACAGCTAG) | 0.137
CTTACCGCTTGGGTTCTAACCTGTTGCCT (site CTTACCGCTAG) | 1.19
CTTACCGCTTGGGTTCTAACCTGTTGCCT (site CTTACGGCTAG) | 0.235
CTTACCGCTTGGGTTCTAACCTGTTGCCT (site CTTACTGCTAG) | 0.273
CTTAGCTCTTGGGTTCTAACCTGTTGCCT (site CGTAGGTCTAG) | 0.009
CTTAGCTCTTGGGTTCTAACCTGTTGCCT (site CTTAGCTCTAG) | 1.15
CTTAGGACTTGGGTTCTAACCTGTTGCCC (site CTTAGGACTAG) | 0.374

Sequence | recombinant barcode read abundance (log10)
CTTAGGACTTGGGTTCTAACCTGTTGCCC (site CTTAGGACTCG) | 0.283
CTTAGGACTTGGGTTCTAACCTGTTGCCC (site CTTAGGACTGG) | 0.404
CTTAGGACTTGGGTTCTAACCTGTTGCCC (site CTTAGGACTTG) | 0.00992
CTTCACGCTTGGGTTCTAACCTGTTGCCT (site CTTCACACTAT) | 0.177
CTTCACGCTTGGGTTCTAACCTGTTGCCT (site CTTCACGCTAG) | 1.21
CTTCAGCCTTGGGTTCTAACCTGTTGCCT (site CTTCAACCTAG) | 0.612
CTTCAGCCTTGGGTTCTAACCTGTTGCCT (site CTTCACCCTAG) | 0.259
CTTCAGCCTTGGGTTCTAACCTGTTGCCT (site CTTCAGCCTAG) | 0.789
CTTCAGCCTTGGGTTCTAACCTGTTGCCT (site CTTCATCCTAG) | 0
CTTCAGGCTTGGGTTCTAACCTGTTGCCT (site CTTCAGGCTAG) | 0.594
CTTCAGGCTTGGGTTCTAACCTGTTGCCT (site CTTGAGACTAG) | 0.0551
CTTCCTTCTTGGGTTCTAACCTGTTGCCT (site CTCCCTTCTAA) | 0.128
CTTCCTTCTTGGGTTCTAACCTGTTGCCT (site CTTCCTTCTAG) | 0.543
CTTCGAGCTTGGGTTCTAACCTGTTGCCG (site CTTCGAGCTCA) | 0.112
CTTCGAGCTTGGGTTCTAACCTGTTGCCG (site CTTCGAGCTCC) | 0.0907
CTTCGAGCTTGGGTTCTAACCTGTTGCCG (site CTTCGAGCTCG) | 0.873
CTTCGAGCTTGGGTTCTAACCTGTTGCCG (site CTTCGAGCTCT) | 0.138
CTTGAGCCTTGGGTTCTAACCTGTTGCGT (site CTTGAGCCTAC) | 2.87
CTTGAGCCTTGGGTTCTAACCTGTTGCGT (site GTTGAGTCTAC) | 0.0339
CTTGGGCCTTGGGTTCTAACCTGTTGCGG (site CTTGGGCCTCC) | 2.67
CTTGGGCCTTGGGTTCTAACCTGTTGCGG (site GTTGGGGCTCC) | 0.0414
CTTGGGTCTTGGGTTCTAACCTGTTGCCT (site CTTGGGTCTAG) | 0.998
CTTGGGTCTTGGGTTCTAACCTGTTGCCT (site CTTGGTTCTAG) | 0.122
CTTTGTACTTGGGTTCTAACCTGTTGCCT (site CCTTGTACTAG) | 0.265
CTTTGTACTTGGGTTCTAACCTGTTGCCT (site CTTTGTACTAG) | 0.419
GAAAACTCTTGGGTTCTAACCTGTTGCCT (site AGGTCTACTCC) | 0.104

Sequence | recombinant barcode read abundance (log10)
GAAAACTCTTGGGTTCTAACCTGTTGCCT (site GAAAACTCTAG) | 1.11
GAAAAGTCTTGGGTTCTAACCTGTTGCTG (site CTCGCTCCTTG) | 0.185
GAAAAGTCTTGGGTTCTAACCTGTTGCTG (site GAAAAGTCTCA) | 1.28
GAAAATCCTTGGGTTCTAACCTGTTGCCT (site GAAAATCCTAG) | 0.304
GAAAATCCTTGGGTTCTAACCTGTTGCCT (site GAAACTCCTAG) | 0.0115
GAAAATCCTTGGGTTCTAACCTGTTGCCT (site GAAAGTCCTAG) | 0.0177
GAAAATCCTTGGGTTCTAACCTGTTGCCT (site GAAATTCCTAG) | 0.297
GAAACGGCTTGGGTTCTAACCTGTTGCCT (site GAAAAGGCTAG) | 0.0884
GAAACGGCTTGGGTTCTAACCTGTTGCCT (site GAAACGGCTAG) | 0.091
GAAACGGCTTGGGTTCTAACCTGTTGCCT (site GAAAGGGCTAG) | 0.0962
GAAACGGCTTGGGTTCTAACCTGTTGCCT (site GAAATGGCTAG) | 0.323
GAAAGTTCTTGGGTTCTAACCTGTTGCCT (site GAAAGTTCTAG) | 1.15
GAAAGTTCTTGGGTTCTAACCTGTTGCCT (site GCAAGTTCTAG) | 0.0711
GAAAGTTCTTGGGTTCTAACCTGTTGCCT (site GGAAGTTCTAG) | 0.109
GAAAGTTCTTGGGTTCTAACCTGTTGCCT (site GTAAGTTCTAG) | 0.153
GAAATGGCTTGGGTTCTAACCTGTTGCCT (site GAAAAGGCTAG) | 0.0553
GAAATGGCTTGGGTTCTAACCTGTTGCCT (site GAAACGGCTAG) | 0.237
GAAATGGCTTGGGTTCTAACCTGTTGCCT (site GAAAGGGCTAG) | 0.108
GAAATGGCTTGGGTTCTAACCTGTTGCCT (site GAAATGGCTAG) | 0.309
GAACACACTTGGGTTCTAACCTGTTGCCG (site GAACACACTCG) | 1.56
GAACACACTTGGGTTCTAACCTGTTGCCG (site GCACACACTCA) | 0.794
GAACACTCTTGGGTTCTAACCTGTTGCTG (site GAACACTCTCA) | 2.09
GAACACTCTTGGGTTCTAACCTGTTGCTG (site TAACACTCTAA) | 0.113
GAACCTACTTGGGTTCTAACCTGTTGCCA (site GAACCTACTTG) | 1.16
GAACCTACTTGGGTTCTAACCTGTTGCCA (site GGACCTACTTG) | 0.0691
